Test results published in patent US20140323418A1, “SELECTIVE KINASE INHIBITORS” (PORTOLA PHARMACEUTICALS, INC., priority 2011, published 2014).

target: T1, full length active recombinant SYK enzyme (Homo sapiens, UniProt P43405); assay: Inhibition of Syk tyrosine phosphorylation activity (LANCE TR-FRET kinase assay); assay type: biochemical; settings: 1 nM SYK, 550 nM substrate, 100 μM ATP, 1 hour room temperature
T1 construct: full length active recombinant SYK enzyme (Millipore, Calif.); purchased Millipore

IC50 [nM] | Structure (SMILES)
100 to 1000 | CC1=C[C@@H](Nc2ncc(C(N)=O)c(Nc3cccc(-n4nccn4)c3)n2)CN1 [Example 227]
10 to 100 | NC(=O)c1cnc(N[C@@H]2CCC[C@H](F)[C@@H]2N)nc1Nc1ccc2ncsc2c1 [Example 239, 2-((1R,2R,3S)-2-amino-3-fluorocyclohexylamino)-4-(benzo[d]thiazol-6-ylamino)pyrimidine-5-carboxamide]
10 to 100 | Cc1nsc(Nc2nc(N[C@@H]3CCCC[C@@H]3N)ncc2C(N)=O)c1Cl [Example 232, 2-(((1R,2S)-2-aminocyclohexyl)amino)-4-((4-chloro-3-methylisothiazol-5-yl)amino)pyrimidine-5-carboxamide]
10 to 100 | NC(=O)c1cnc(N[C@@H]2CCOC[C@@H]2N)nc1Nc1ccc2scnc2c1 [Example 178, 2-((3R,4R)-3-aminotetrahydro-2H-pyran-4-ylamino)-4-(benzo[d]thiazol-5-ylamino)pyrimidine-5-carboxamide]
100 to 1000 | NC(=O)c1cnc(N[C@H]2CCCNC2)nc1Nc1cnc2ccccc2c1 [Example 215, (S)-2-(piperidin-3-ylamino)-4-(quinolin-3-ylamino)pyrimidine-5-carboxamide]
1 to 10 | NC(=O)c1cnc(N[C@H](C2CC2)C2(N)CC2)nc1Nc1ccc2ncsc2c1 [Example 167, (R)-2-(1-(1-aminocyclopropyl)(cyclopropyl)methylamino)-4-(benzo[d]thiazol-6-ylamino)pyrimidine-5-carboxamide]
10 to 100 | Cc1cccc(Nc2nc(N[C@@H]3CC[C@@H](C(=O)N4CC(F)(F)C4)C[C@@H]3N)ncc2C(N)=O)c1 (racemic) [Example 192, 2-((1R,2S,4R)-2-amino-4-(3,3-difluoroazetidine-1-carbonyl)cyclohexylamino)-4-(m-tolylamino)pyrimidine-5-carboxamide]
1 to 10 | NC(=O)c1cnc(N[C@H](C2CC2)C2(N)CC2)nc1Nc1cccc(-n2cncn2)c1 [Example 163, (R)-4-(3-(1H-1,2,4-triazol-1-yl)phenylamino)-2-(1-(1-aminocyclopropyl)(cyclopropyl)methylamino)pyrimidine-5-carboxamide]
10 to 100 | Cc1ccc(Nc2ncc(C(N)=O)c(N[C@H]3CC[C@@H](N)CC3)n2)cc1 [Example 184, 4-(4-aminocyclohexylamino)-2-(p-tolylamino)pyrimidine-5-carboxamide]
10 to 100 | NC(=O)c1cnc(N[C@@H]2CCCC(F)(F)[C@@H]2N)nc1Nc1ccc2ncccc2c1 [Example 169, 2-((1R,2R)-2-amino-3,3-difluorocyclohexylamino)-4-(quinolin-6-ylamino)pyrimidine-5-carboxamide]
10 to 100 | NC(=O)c1cnc(N[C@@H]2CCC[C@H](F)[C@@H]2N)nc1Nc1cccc(-c2ncccn2)c1 [Example 236, 2-((1R,2R,3S)-2-amino-3-fluorocyclohexylamino)-4-(3-(pyrimidin-2-yl)phenylamino)pyrimidine-5-carboxamide]
1 to 10 | Cc1cccc(Nc2nc(N[C@@H]3CC[C@@H](C(=O)N(C)C)C[C@@H]3N)ncc2C(N)=O)c1 (racemic) [Example 190, 2-((1R,2S,4R)-2-amino-4-(dimethylcarbamoyl)cyclohexylamino)-4-(m-tolylamino)pyrimidine-5-carboxamide]
100 to 1000 | NC(=O)c1cnc(N[C@@H]2CCCC(=O)[C@@H]2N)nc1Nc1cccc(-n2nccn2)c1 (racemic) [Example 165]
100 to 1000 | NC(=O)c1cnc(N[C@H]2CN[C@@H](CF)C2)nc1Nc1cccc(-n2nccn2)c1 [Example 229, 4-((3-(2H-1,2,3-triazol-2-yl)phenyl)amino)-2-(((3R,5R)-5-(fluoromethyl)pyrrolidin-3-yl)amino)pyrimidine-5-carboxamide]
100 to 1000 | C=C1C[C@@H](Nc2ncc(C(N)=O)c(Nc3cccc(-n4nccn4)c3)n2)CN1 [Example 226]

The next lines start with the molecule.

Structure (SMILES) | IC50 [nM]
CC(C)[C@@H](Nc1ncc(C(N)=O)c(Nc2cccc(-c3ncccn3)c2)n1)C1(N)CC1 [Example 136, (R)-2-(1-(1-aminocyclopropyl)-2-methylpropylamino)-4-(3-(pyrimidin-2-yl)phenylamino)pyrimidine-5-carboxamide] | 1 to 10
NC(=O)c1cnc(N[C@@H]2CCCC[C@@H]2N)nc1Nc1ccc2cccnc2c1 [Example 75, 2-((1R,2S)-2-aminocyclohexylamino)-4-(quinolin-7-ylamino)pyrimidine-5-carboxamide] | 10 to 100
NC(=O)c1cnc(NC2CCCc3cccnc32)nc1Nc1cccc(-n2nccn2)c1 (racemic) [Example 18, 4-(3-(2H-1,2,3-triazol-2-yl)phenylamino)-2-(5,6,7,8-tetrahydroquinolin-8-ylamino)pyrimidine-5-carboxamide] | 100 to 1000
CC(C)[C@@H](Nc1ncc(C(N)=O)c(Nc2ccc3cccnc3c2)n1)C(N)=O [Example 77, (R)-2-(1-amino-3-methyl-1-oxobutan-2-ylamino)-4-(quinolin-7-ylamino)pyrimidine-5-carboxamide] | 100 to 1000
CC[C@@H](Nc1ncc(C(N)=O)c(Nc2ccc(C)cc2)n1)C1(N)CC1 [Example 130, (R)-2-(1-(1-aminocyclopropyl)propylamino)-4-(p-tolylamino)pyrimidine-5-carboxamide] | 1 to 10
Cc1cccc(Nc2nc(N[C@H](C(C)C)C3(N)CC3)ncc2C(N)=O)c1 [Example 144, (R)-2-(1-(1-aminocyclopropyl)-2-methylpropylamino)-4-(m-tolylamino)pyrimidine-5-carboxamide] | 1 to 10
N#Cc1cccc(Nc2nc(NC[C@@H](N)CC(F)F)ncc2C(N)=O)c1 [Example 82, (S)-2-(2-amino-4,4-difluorobutylamino)-4-(3-cyanophenylamino)pyrimidine-5-carboxamide] | 100 to 1000
CCO[C@H]1CCCC[C@H]1Nc1ncc(C(N)=O)c(Nc2cccc(-n3nccn3)c2)n1 [Example 7, 4-(3-(2H-1,2,3-triazol-2-yl)phenylamino)-2-((1R,2S)-2-ethoxycyclohexylamino)pyrimidine-5-carboxamide] | 100 to 1000
CCn1ccc2c(Nc3nc(NC4CC4)ncc3C(N)=O)cccc21 [Example 114, 2-(cyclopropylamino)-4-(1-ethyl-1H-indol-4-ylamino)pyrimidine-5-carboxamide] | 100 to 1000
CC[C@@H](Nc1ncc(C(N)=O)c(Nc2cnc3ccccc3c2)n1)C(N)=O [Example 68, (R)-2-(1-amino-1-oxobutan-2-ylamino)-4-(quinolin-3-ylamino)pyrimidine-5-carboxamide] | 10 to 100
NC(=O)c1cnc(N[C@@H]2CCCC[C@@H]2N)nc1Nc1ccc2ccncc2c1 [Example 73, 2-((1R,2S)-2-aminocyclohexylamino)-4-(isoquinolin-7-ylamino)pyrimidine-5-carboxamide] | 10 to 100
Cc1cccc(Nc2nc(N[C@H](c3ccccc3)C3(N)CC3)ncc2C(N)=O)c1 [Example 147, (R)-2-(1-(1-aminocyclopropyl)(phenyl)methylamino)-4-(m-tolylamino)pyrimidine-5-carboxamide] | 10 to 100
CC[C@H](Nc1ncc(C(N)=O)c(Nc2cccc(C)c2)n1)C1(N)CC1 [Example 128, (S)-2-(1-(1-aminocyclopropyl)propylamino)-4-(m-tolylamino)pyrimidine-5-carboxamide] | 100 to 1000
NC(=O)c1cnc(N[C@@H]2CCCC(F)(F)[C@@H]2N)nc1Nc1csc2ncccc12 [Example 31, 2-(((1R,2R)-2-amino-3,3-difluorocyclohexyl)amino)-4-(thieno[2,3-b]pyridin-3-ylamino)pyrimidine-5-carboxamide] | 10 to 100
C[C@@H](Nc1ncc(C(N)=O)c(Nc2cccc3c2ccn3C)n1)C1CC1 [Example 110, (R)-2-(1-cyclopropylethylamino)-4-(1-methyl-1H-indol-4-ylamino)pyrimidine-5-carboxamide] | 100 to 1000
Cc1cccc(Nc2nc(N[C@H]3[C@@H](N)CCCC3(F)F)ncc2C(N)=O)c1 [Example 39, 2-(((1S,6S)-6-amino-2,2-difluorocyclohexyl)amino)-4-(m-tolylamino)pyrimidine-5-carboxamide] | 10 to 100
Cn1ccc2c(Nc3nc(N[C@@H]4CCCC(F)(F)[C@@H]4N)ncc3C(N)=O)cccc21 [Example 91, 2-((1R,2R)-2-amino-3,3-difluorocyclohexylamino)-4-(1-methyl-1H-indol-4-ylamino)pyrimidine-5-carboxamide] | 10 to 100
COc1cccc(Nc2nc(N[C@H](CC(C)C)C(N)=O)ncc2C(N)=O)c1 [Example 62, (R)-2-((1-amino-4-methyl-1-oxopentan-2-yl)amino)-4-((3-methoxyphenyl)amino)pyrimidine-5-carboxamide] | 10 to 100
CCc1c(C)n(C)c2cccc(Nc3nc(N[C@@H]4CCCC[C@@H]4N)ncc3C(N)=O)c12 [Example 101, 2-((1R,2S)-2-aminocyclohexylamino)-4-(3-ethyl-1,2-dimethyl-1H-indol-4-ylamino)pyrimidine-5-carboxamide] | 100 to 1000
CC[C@@H](Nc1ncc(C(N)=O)c(Nc2ccc(-c3cnns3)cc2)n1)C(N)=O [Example 59, (R)-4-((4-(1,2,3-thiadiazol-5-yl)phenyl)amino)-2-((1-amino-1-oxobutan-2-yl)amino)pyrimidine-5-carboxamide] | 10 to 100
CC(C)[C@@H](Nc1ncc(C(N)=O)c(Nc2ccc3ncccc3c2)n1)C(N)=O [Example 69, (R)-2-(1-amino-3-methyl-1-oxobutan-2-ylamino)-4-(quinolin-6-ylamino)pyrimidine-5-carboxamide] | 10 to 100
NC(=O)c1cnc(N[C@H](CC2CC2)C(N)=O)nc1Nc1cnc2ccccc2c1 [Example 74, (R)-2-(1-amino-3-cyclopropyl-1-oxopropan-2-ylamino)-4-(quinolin-3-ylamino)pyrimidine-5-carboxamide] | 10 to 100
NC(=O)c1cnc(N[C@@H]2CCCC[C@@H]2N)nc1Nc1ccc(Cl)c(-n2nccn2)c1 [Example 22, 2-((1R,2S)-2-aminocyclohexylamino)-4-(4-chloro-3-(2H-1,2,3-triazol-2-yl)phenylamino)pyrimidine-5-carboxamide] | 1 to 10
